Test results taken from patent publication US8846711B2, “Heterocyclic acrylamides and their use as pharmaceuticals” (Fab Pharma S.A.S., priority 2009, dated 2014).
In brackets after ≈: the same amount, converted by molar mass.

Tests used:
[1] = molecular target: recombinant S. aureus FabI enzyme (Staphylococcus aureus (strain MRSA252), UniProt Q6GI75); test: FabI inhibition, fluorescence based assay; assay type: biochemical; conditions: in vitro
Experimental: Compound inhibitory activity of FabI enzyme is measured in vitro by the […] determination using a fluorescence based assay.
The protein FabI from S. aureus is prepared and purified using standard methods for recombinant protein expression after cloning of the gene in a prokaryotic expression vector.
The biochemical activity of the FabI enzyme is assessed using the following method.
The assay buffer “AB” contained 50 mM ADA (N-(2-acetamido)iminodiacetic acid monosodium salt) pH 6.5, 1 mM dithiothreitol, 0.006% Triton-X100 and 50 mM NaCl.
The following components are added in a white polystyrene Costar plate (Ref 3912) up to a final volume of 55.5 μL: 1.5 μL DMSO or inhibitor dissolved in DMSO and 54 μL of a FabI/NADPH/NADP+ mixture in AB. After 60 min of pre-incubation at room temperature, the reaction is started by addition of 5 μL of trans-2-octenoyl N-acetylcysteamine thioester (t-o-NAC) to a final volume of 60.5 μL. This reaction mixture is then composed of 2 nM FabI, 40 μM NADPH (Sigma, N7505), 10 μM NADP+ (Sigma, N5755), 100 μM t-O-NAC and compound at defined concentration. Fluorescence intensity of NADPH (λex=360 nm, […]) is measured immediately after t-O-NAC addition (T0), and approximately 50 min later (T50) by a Fluostar Optima (BMG) so as to achieve ±30% of NADPH conversion. Enzyme activity is calculated by first subtracting TO signal to T50 and then subtracting background signal (FabI=0). Percentages of inhibition are calculated against untreated samples (Inhibitor=0) and IC50 are fitted to a classical Langmuir equilibrium model using XLFIT (IDBS).

[2] = system: S. aureus CIP 54.146; test: MIC determination using broth microdilution method; assay type: cell-based; conditions: Staphylococcus aureus, CIP54 / MSSA, read-out: MIC (μg/ml) S. aureus CIP 54.146
Experimental: The compounds of the invention are useful antibacterial agents having a selective spectrum of activity in vitro against bacterial strains relying on FabI and related targets. […] The activity is presented as Minimum Inhibitory Concentration (MIC) expressed in μg/ml and was determined using broth microdilution or Agar dilution methods.
Antibacterial activity was determined on strains from Mutabilis internal collection.
This protocol is compliant with Clinical Laboratory Standards Institute (CLSI) methodology as described in M7-A7 document of the CLSI. The compound to be tested is diluted according to a geometric series of reason 2 in pure DMSO. Dilutions are transferred in sterile polystyrene microplates, followed by mid-log phase bacteria in cation-adjusted Muller-Hinton broth (ca-MHB, Fluka, Reference 90922) with a final inoculum of 5×10^5 cfu/ml. Microplates are incubated overnight at 35° C. MIC is defined as the lowest concentration of antimicrobial agent that completely prevents visible bacterial growth. All manipulations, but compound handling (in pure DMSO), are performed under sterile conditions. The final concentration of DMSO in the plates is 2%.

[3] = system: C. albicans (ATCC 90028); test: MIC determination using susceptibility method (broth microdilution); assay type: cell-based; conditions: Candida albicans, ATCC90028, read-out: MIC (μg/ml) C. albicans (ATCC 90028)
Experimental: (§1) Minimum inhibitory concentrations (MICs) were determined by broth microdilution according to CLSI guidelines (CLSI, M100-20^1, M7-A8^2, M27-A3^3). The compounds were tested in the range from […]. Colonies were taken directly from a second-pass culture plate and prepared to a suspension equivalent to the 0.5 McFarland standard using normal saline. […] The panels were incubated at 35° C. for 16 to 20 hours before reading the MIC endpoints. The compounds of Examples 12, 29, 59, 63 and 66-71 were dissolved in DMSO to make the initial solutions of 5120 μg/ml. These solutions were diluted 1:10 in sterile water to a stock solution of 512 μg/ml. The stock solutions were further diluted into the appropriate broth medium for the sequential dilutions used in the broth microdilution panels. S. pneumoniae was tested in Mueller Hinton (MH) broth with 3% lysed horse blood and C. albicans was tested in RPMI-1640 medium. All other organisms were tested in MH broth.

[4] = system: E. coli (ATCC 25922); test: as above; assay type: cell-based; conditions: Escherichia coli, ATCC25922, read-out: MIC (μg/ml) E. coli (ATCC 25922)
Experimental: as §1

[5] = system: E. faecalis (ATCC 29212); test: as above; assay type: cell-based; conditions: Enterococcus faecalis, ATCC29212, read-out: MIC (μg/ml) E. faecalis (ATCC 29212)
Experimental: as §1

[6] = system: MRSA (IHMA #510059); test: as above; assay type: cell-based; conditions: Staphylococcus aureus, read-out: MIC (μg/ml) MRSA (IHMA #510059)
Experimental: as §1

[7] = system: MSSA (IHMA #555189); test: as above; assay type: cell-based; conditions: Staphylococcus aureus, read-out: MIC (μg/ml) MSSA (IHMA #555189)
Experimental: as §1

[8] = system: S. aureus ATCC 29213; test: as above; assay type: cell-based; conditions: Staphylococcus aureus, ATCC29213, read-out: MIC (μg/ml) S. aureus ATCC 29213
Experimental: as §1

[9] = system: S. pneumoniae (ATCC 49619); test: as above; assay type: cell-based; conditions: Streptococcus pneumoniae, ATCC49619, read-out: MIC (μg/ml) S. pneumoniae (ATCC 49619)
Experimental: as §1

[10] = system: Staphylococcus aureus strain ATCC 29213; test: In vivo antibacterial activity, thigh infection model in neutropenic Swiss mice; conditions: 100 mg/kg orally, 1.5 h after infection, FIG. 1
[11] = molecular target: human albumin (HSA) (Homo sapiens (Human), UniProt P02768); test: HSA binding analysis using a chiral HSA column; assay type: in vitro ADME
From the text: The test system used in this analysis was an HSA chiral column.
The relationship between the retention time (Tr) and percentage of albumin binding (AB %) depended on the dead time (TO) and the capacity factor (k′): AB%=[k′/(k′+1)]*100
HSA binding was classified as follows:
75%≦AB<90%: Moderate binding

human albumin (HSA), sequence (P02768 25-609): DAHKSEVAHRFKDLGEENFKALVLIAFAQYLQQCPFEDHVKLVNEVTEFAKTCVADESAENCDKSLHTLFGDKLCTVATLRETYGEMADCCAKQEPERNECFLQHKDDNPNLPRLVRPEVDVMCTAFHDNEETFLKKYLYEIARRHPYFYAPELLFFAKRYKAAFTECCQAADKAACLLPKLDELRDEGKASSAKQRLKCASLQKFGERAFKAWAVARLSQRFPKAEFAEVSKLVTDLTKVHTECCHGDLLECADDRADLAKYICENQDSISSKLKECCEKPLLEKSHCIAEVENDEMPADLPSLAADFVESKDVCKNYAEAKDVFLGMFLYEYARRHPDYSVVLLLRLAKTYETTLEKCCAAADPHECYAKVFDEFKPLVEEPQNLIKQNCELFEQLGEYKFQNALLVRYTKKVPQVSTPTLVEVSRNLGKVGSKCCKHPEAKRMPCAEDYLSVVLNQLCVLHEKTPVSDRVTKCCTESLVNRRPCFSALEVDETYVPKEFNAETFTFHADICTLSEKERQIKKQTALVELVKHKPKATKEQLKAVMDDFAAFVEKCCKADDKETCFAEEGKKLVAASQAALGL

O=C1CCc2cc(/C=C/C(=O)N3CC(OCc4cccs4)C3)cnc2N1 [Example 12, 6-{(1E)-3-Oxo-3-[3-(2-thienylmethoxy)azetidin-1-yl]prop-1-en-1-yl}-3,4-dihydro-1,8-naphthyridin-2(1H)-one]
IC50 [1]: 13 nM
MIC [2]: 4 µg/mL (≈ 10.8 µM)
MIC [3]: > 128 µg/mL
MIC [4]: > 128 µg/mL
MIC [5]: > 128 µg/mL
MIC [6]: 1 µg/mL (≈ 2.71 µM)
MIC [7]: 1 µg/mL (≈ 2.71 µM)
MIC [8]: 1 µg/mL (≈ 2.71 µM)
MIC [9]: > 128 µg/mL
in vivo antibacterial activity (bacterial burden in the thigh of infected mice) [10]: able to protect mice against thigh dissemination
HSA Binding (%) ([11]; AB%=[k′/(k′+1)]*100, chiral HSA column, pH 7.0): 45.2%
k′ ([11]; capacity factor, k′=(Tr−T0)/T0): 0.826
Conclusion (HSA binding class) ([11]; chiral HSA column): Low binding (AB<75%: Low binding)
Tr ([11]; retention time on chiral HSA column, pH 7.0, 37° C.): 1.410 min
affinity in vitro to human albumin ([11]; text summary of Table 7): low affinity
